Measured values reported in patent US20240132431A1, “METHOD FOR ALKYLATING ACIDIC FUNCTIONAL GROUP” (Chugai Seiyaku Kabushiki Kaisha, priority 2021, published 2024).

Molecular target: T1, Bcl-2 protein (Recombinant Human Bcl-2 Protein) (Homo sapiens, UniProt P10415)
T1 construct: purchased Novus NBP2-34889
Test: Binding evaluation of mixture library compounds to Bcl-2 using AS-MS (affinity selection mass spectrometry)
Summary of the method: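 Bcl-2 binding is scored from LC/MS signal retained with protein through gel-filtration spin columns, normalised to unfiltered and protein-free controls. Incubation: 20 μM protein, […] per compound, 1 h, 23° C.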

T1 sequence (P10415 whole entry): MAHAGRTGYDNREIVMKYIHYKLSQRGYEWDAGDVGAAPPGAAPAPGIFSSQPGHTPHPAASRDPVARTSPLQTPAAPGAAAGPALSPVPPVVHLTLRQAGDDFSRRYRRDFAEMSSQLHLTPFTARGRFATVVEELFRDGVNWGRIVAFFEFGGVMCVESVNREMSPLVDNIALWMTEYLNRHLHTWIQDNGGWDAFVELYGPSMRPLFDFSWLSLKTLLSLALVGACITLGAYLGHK

Structure (SMILES) | ASMS ratio (%) (n = 1) | ASMS ratio (%) (n = 2)
CCOc1cccc(-c2cc(CN3CCN(c4ccc(C(=O)NS(C)(=O)=O)nn4)CC3)cc(OCC)c2)c1 [B2I081-01] | 0.0% | 0.0%
CCOc1cncc(-c2cc(CN3CCN(c4ccc(C(=O)NS(C)(=O)=O)nn4)CC3)cc(OCC)c2)c1 [B2I082-01, 6-[4-[[3-Ethoxy-5-(5-ethoxypyridin-3-yl)phenyl]methyl]piperazin-1-yl]-N-methylsulfonylpyridazine-3-carboxamide] | 0.0% | 1.9%
CCOc1cccc(-c2cc(CN3CCN(c4ccc(C(=O)NS(C)(=O)=O)nn4)CC3)cc(OC(C)C)c2)c1 [B2I083-01, 6-[4-[[3-(3-Ethoxyphenyl)-5-propan-2-yloxyphenyl]methyl]piperazin-1-yl]-N-methylsulfonylpyridazine-3-carboxamide] | 0.0% | 0.0%
CCOc1cncc(-c2cc(CN3CCN(c4ccc(C(=O)NS(C)(=O)=O)nn4)CC3)cc(OC(C)C)c2)c1 [B2I084-01] | −0.9% | −1.5%
CCOc1cccc(-c2cc(OC)c(CN3CCN(c4ccc(C(=O)NS(C)(=O)=O)nn4)CC3)c(OC)c2)c1 [B2I085-01, 6-[4-[[4-(3-Ethoxyphenyl)-2,6-dimethoxyphenyl]methyl]piperazin-1-yl]-N-methylsulfonylpyridazine-3-carboxamide] | 0.0% | 0.0%
CCOc1cncc(-c2cc(OC)c(CN3CCN(c4ccc(C(=O)NS(C)(=O)=O)nn4)CC3)c(OC)c2)c1 [B2I086-01, 6-[4-[[4-(5-Ethoxypyridin-3-yl)-2,6-dimethoxyphenyl]methyl]piperazin-1-yl]-N-methylsulfonylpyridazine-3-carboxamide] | 0.0% | 0.0%
CCOc1cccc(-c2cc(CN3CCN(c4ccc(C(=O)NS(C)(=O)=O)nn4)CC3)cc(C(F)(F)F)c2)c1 [B2I087-01, 6-[4-[[3-(3-Ethoxyphenyl)-5-(trifluoromethyl)phenyl]methyl]piperazin-1-yl]-N-methylsulfonylpyridazine-3-carboxamide] | 1.3% | −0.9%
CCOc1cncc(-c2cc(CN3CCN(c4ccc(C(=O)NS(C)(=O)=O)nn4)CC3)cc(C(F)(F)F)c2)c1 [B2I088-01, 6-[4-[[3-(5-Ethoxypyridin-3-yl)-5-(trifluoromethyl)phenyl]methyl]piperazin-1-yl]-N-methylsulfonylpyridazine-3-carboxamide] | 0.0% | 0.0%
CCOc1cccc(-c2cc(CN3CCN(c4ccc(C(=O)NS(C)(=O)=O)nn4)CC3)cc(OC(F)(F)F)c2)c1 [B2I089-01, 6-[4-[[3-(3-Ethoxyphenyl)-5-(trifluoromethoxy)phenyl]methyl]piperazin-1-yl]-N-methylsulfonylpyridazine-3-carboxamide] | 1.4% | 0.0%
CCOc1cncc(-c2cc(CN3CCN(c4ccc(C(=O)NS(C)(=O)=O)nn4)CC3)cc(OC(F)(F)F)c2)c1 [B2I090-01, 6-[4-[[3-(5-Ethoxypyridin-3-yl)-5-(trifluoromethoxy)phenyl]methyl]piperazin-1-yl]-N-methylsulfonylpyridazine-3-carboxamide] | 0.0% | 0.0%
CCOc1cncc(-c2ccc(CN3CCN(c4ccc(C(=O)NS(C)(=O)=O)nn4)CC3)c3ccccc23)c1 [B2I092-01, 6-[4-[[4-(5-Ethoxypyridin-3-yl)naphthalen-1-yl]methyl]piperazin-1-yl]-N-methylsulfonylpyridazine-3-carboxamide] | 2.6% | 0.3%
CCOc1cncc(-c2csc(CN3CCN(c4ccc(C(=O)NS(C)(=O)=O)nn4)CC3)c2)c1 [B2I094-01, 6-[4-[[4-(5-Ethoxypyridin-3-yl)thiophen-2-yl]methyl]piperazin-1-yl]-N-methylsulfonylpyridazine-3-carboxamide] | 0.0% | 0.0%
CCOc1cccc(C#Cc2ccccc2CN2CCN(c3ccc(C(=O)NS(C)(=O)=O)nn3)CC2)c1 [B2I095-01, 6-[4-[[2-[2-(3-Ethoxyphenyl)ethynyl]phenyl]methyl]piperazin-1-yl]-N-methylsulfonylpyridazine-3-carboxamide] | 0.0% | 0.0%
CCOc1cncc(C#Cc2ccccc2CN2CCN(c3ccc(C(=O)NS(C)(=O)=O)nn3)CC2)c1 [B2I096-01, 6-[4-[[2-[2-(5-Ethoxypyridin-3-yl)ethynyl]phenyl]methyl]piperazin-1-yl]-N-methylsulfonylpyridazine-3-carboxamide] | 0.0% | 0.0%
CCOc1cccc(-c2ccc(C(C)N3CCN(c4ccc(C(=O)NS(C)(=O)=O)cc4)CC3)cc2)c1 (stereo not drawn) [B2I097-01, 4-[4-[1-[4-(3-Ethoxyphenyl)phenyl]ethyl]piperazin-1-yl]-N-methylsulfonylbenzamide] | 0.8% | 1.4%
CCOc1cncc(-c2ccc(C(C)N3CCN(c4ccc(C(=O)NS(C)(=O)=O)cc4)CC3)cc2)c1 (stereo not drawn) [B2I098-01, 4-[4-[1-[4-(5-Ethoxypyridin-3-yl)phenyl]ethyl]piperazin-1-yl]-N-methylsulfonylbenzamide] | 0.0% | 0.0%
CCOc1cccc(-c2ccc(C(C)N3CCN(c4ccc(C(=O)NS(C)(=O)=O)cc4)CC3)c(F)c2)c1 (stereo not drawn) [B2I099-01, 4-[4-[1-[4-(3-Ethoxyphenyl)-2-fluorophenyl]ethyl]piperazin-1-yl]-N-methylsulfonylbenzamide] | – | 0.0%
CCOc1cncc(-c2ccc(C(C)N3CCN(c4ccc(C(=O)NS(C)(=O)=O)cc4)CC3)c(F)c2)c1 (stereo not drawn) [B2I100-01, 4-[4-[1-[4-(5-Ethoxypyridin-3-yl)-2-fluorophenyl]ethyl]piperazin-1-yl]-N-methylsulfonylbenzamide] | 0.0% | 0.0%
CCOc1cccc(-c2csc(C(=O)N3CCN(c4ccc(C(=O)NS(=O)(=O)C(C)(C)C)nn4)CC3)c2)c1 [B2L001-01, N-tert-Butylsulfonyl-6-[4-[4-(3-ethoxyphenyl)thiophene-2-carbonyl]piperazin-1-yl]pyridazine-3-carboxamide] | −67.5% | 0.0%
CCOc1cncc(-c2csc(C(=O)N3CCN(c4ccc(C(=O)NS(=O)(=O)C(C)(C)C)nn4)CC3)c2)c1 [B2L002-01, N-tert-Butylsulfonyl-6-[4-[4-(5-ethoxypyridin-3-yl)thiophene-2-carbonyl]piperazin-1-yl]pyridazine-3-carboxamide] | 0.0% | 0.0%
CCOc1cccc(-c2ccc(C(=O)N3CCN(c4ccc(C(=O)NS(=O)(=O)C(C)(C)C)nn4)CC3)cc2C)c1 [B2L003-01, N-tert-Butylsulfonyl-6-[4-[4-(3-ethoxyphenyl)-3-methylbenzoyl]piperazin-1-yl]pyridazine-3-carboxamide] | 0.0% | 0.0%
CCOc1cncc(-c2ccc(C(=O)N3CCN(c4ccc(C(=O)NS(=O)(=O)C(C)(C)C)nn4)CC3)cc2C)c1 [B2L004-01, N-tert-Butylsulfonyl-6-[4-[4-(5-ethoxypyridin-3-yl)-3-methylbenzoyl]piperazin-1-yl]pyridazine-3-carboxamide] | 5.5% | 9.3%
CCOc1cccc(-c2ccc(C(=O)N3CCN(c4ccc(C(=O)NS(=O)(=O)C(C)(C)C)nn4)CC3)cc2F)c1 [B2L005-01, N-tert-Butylsulfonyl-6-[4-[4-(3-ethoxyphenyl)-3-fluorobenzoyl]piperazin-1-yl]pyridazine-3-carboxamide] | 0.0% | 0.0%
CCOc1cncc(-c2ccc(C(=O)N3CCN(c4ccc(C(=O)NS(=O)(=O)C(C)(C)C)nn4)CC3)cc2F)c1 [B2L006-01, N-tert-Butylsulfonyl-6-[4-[4-(5-ethoxypyridin-3-yl)-3-fluorobenzoyl]piperazin-1-yl]pyridazine-3-carboxamide] | 0.0% | 0.0%
CCOc1cccc(C#Cc2ccccc2C(=O)N2CCN(c3ccc(C(=O)NS(=O)(=O)C(C)(C)C)nn3)CC2)c1 [B2L007-01, N-tert-Butylsulfonyl-6-[4-[2-[2-(3-ethoxyphenyl)ethynyl]benzoyl]piperazin-1-yl]pyridazine-3-carboxamide] | 0.0% | −1.0%
CCOc1cncc(C#Cc2ccccc2C(=O)N2CCN(c3ccc(C(=O)NS(=O)(=O)C(C)(C)C)nn3)CC2)c1 [B2L008-01, N-tert-Butylsulfonyl-6-[4-[2-[2-(5-ethoxypyridin-3-yl)ethynyl]benzoyl]piperazin-1-yl]pyridazine-3-carboxamide] | 0.0% | 0.0%
CCOc1cccc(C#Cc2cncc(C(=O)N3CCN(c4ccc(C(=O)NS(=O)(=O)C(C)(C)C)nn4)CC3)c2)c1 [B2L009-01, N-tert-Butylsulfonyl-6-[4-[5-[2-(3-ethoxyphenyl)ethynyl]pyridine-3-carbonyl]piperazin-1-yl]pyridazine-3-carboxamide] | 0.0% | 0.0%
CCOc1cncc(C#Cc2cncc(C(=O)N3CCN(c4ccc(C(=O)NS(=O)(=O)C(C)(C)C)nn4)CC3)c2)c1 [B2L010-01, N-tert-Butylsulfonyl-6-[4-[5-[2-(5-ethoxypyridin-3-yl)ethynyl]pyridine-3-carbonyl]piperazin-1-yl]pyridazine-3-carboxamide] | 0.0% | 0.0%
CCOc1cccc(-c2ccccc2CCC(=O)N2CCN(c3ccc(C(=O)NS(=O)(=O)C(C)(C)C)nn3)CC2)c1 [B2L011-01, N-tert-Butylsulfonyl-6-[4-[3-[2-(3-ethoxyphenyl)phenyl]propanoyl]piperazin-1-yl]pyridazine-3-carboxamide] | 0.0% | 0.0%
